In ChEMBL document CHEMBL3877326, “Design, synthesis and evaluation of some N-methylenebenzenamine derivatives as selective acetylcholinesterase (AChE) inhibitor and antioxidant to enhance learning and memory” (Bioorg Med Chem, 2017):
The source made the active and inactive calls. No cut-off for these calls is given here.

Assays:
Acetylcholinesterase [1] = biological target: T1, Acetylcholinesterase (Electrophorus electricus, UniProt O42275); assay: Inhibition of electric eel AChE using acetylthiocholine iodide as substrate preincubated for 20 mins followed by substrate addition by Ellman's method
T1 sequence (O42275 whole entry): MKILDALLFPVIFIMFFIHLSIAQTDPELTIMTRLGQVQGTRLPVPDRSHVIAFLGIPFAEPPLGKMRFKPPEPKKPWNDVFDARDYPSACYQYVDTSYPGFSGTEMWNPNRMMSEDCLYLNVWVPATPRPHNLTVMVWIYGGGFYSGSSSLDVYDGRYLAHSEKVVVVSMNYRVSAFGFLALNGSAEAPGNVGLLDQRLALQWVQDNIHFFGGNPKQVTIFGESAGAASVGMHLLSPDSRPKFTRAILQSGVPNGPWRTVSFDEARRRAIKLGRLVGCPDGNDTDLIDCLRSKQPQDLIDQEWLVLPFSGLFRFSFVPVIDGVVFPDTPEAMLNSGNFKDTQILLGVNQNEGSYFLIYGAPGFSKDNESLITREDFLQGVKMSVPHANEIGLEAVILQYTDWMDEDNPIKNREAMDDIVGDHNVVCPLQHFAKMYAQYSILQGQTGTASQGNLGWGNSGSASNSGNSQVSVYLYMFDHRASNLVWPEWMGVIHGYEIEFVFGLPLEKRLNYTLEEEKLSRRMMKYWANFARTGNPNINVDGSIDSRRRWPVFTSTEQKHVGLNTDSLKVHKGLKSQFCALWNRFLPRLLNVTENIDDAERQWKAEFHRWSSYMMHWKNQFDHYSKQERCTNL

Cholinesterase = Cholinesterase (Equus caballus, UniProt P81908); assay: Inhibition of horse serum BuChE using butyrylthiocholine iodide as substrate preincubated for 20 mins followed by substrate addition by Ellman's method; assay type: ADME
Chain of Cholinesterase (P81908 whole entry): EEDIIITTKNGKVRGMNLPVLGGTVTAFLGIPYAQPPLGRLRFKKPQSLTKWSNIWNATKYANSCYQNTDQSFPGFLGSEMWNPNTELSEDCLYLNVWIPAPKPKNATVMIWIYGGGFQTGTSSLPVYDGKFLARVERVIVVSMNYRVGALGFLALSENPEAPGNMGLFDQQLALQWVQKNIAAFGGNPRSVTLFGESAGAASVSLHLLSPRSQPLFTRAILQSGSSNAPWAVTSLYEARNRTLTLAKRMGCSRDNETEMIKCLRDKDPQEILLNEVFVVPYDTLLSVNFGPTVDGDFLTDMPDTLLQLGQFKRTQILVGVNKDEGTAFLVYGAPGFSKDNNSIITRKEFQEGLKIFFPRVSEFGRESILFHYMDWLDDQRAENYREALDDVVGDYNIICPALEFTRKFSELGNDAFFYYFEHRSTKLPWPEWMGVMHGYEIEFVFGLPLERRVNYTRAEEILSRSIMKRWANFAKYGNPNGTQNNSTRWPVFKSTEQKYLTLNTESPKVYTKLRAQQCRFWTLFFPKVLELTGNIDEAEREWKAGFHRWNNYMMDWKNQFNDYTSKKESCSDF

[2] = Selectivity index, ratio of IC50 for horse serum BuChE to IC50 for electric eel AChE
Acetylcholinesterase [3] = biological target: T1, Acetylcholinesterase; assay: Uncompetitive inhibition of electric eel AChE using varying levels of acetylthiocholine iodide substrate preincubated for 20 mins followed by substrate addition by Lineweaver-Burk plot analysis
[4] = Antioxidant activity assessed as DPPH radical scavenging activity at 10 to 100 ug/ml incubated for 30 mins under dark condition; assay type: functional
[5] = Antioxidant activity assessed as H2O2 radical scavenging activity at 10 to 100 ug/ml incubated for 10 mins by UV-Visible spectrophotometric method; assay type: functional
Rattus norvegicus [6] = assay: Ex vivo inhibition of AChE in Charles Foster albino rat brain assessed as substrate hydrolyzed per mg protein at 30 mg/kg, po measured after 1 hr using acetylthiocholine iodide as substrate by Ellman's method (reference value: 46.56 +/- 0.66 nmol/min); assay type: functional
Rattus norvegicus [7] = assay: Cognition enhancement activity in Charles Foster albino rat model of spatial reference memory assessed as decrease in escape latency at 20 to 30 mg/kg, po administered from day 1 to 2 measured 1 hr post last dose on day 2 by Morris water maze test; assay type: functional, organism-based
Rattus norvegicus [8] = assay: Cognition enhancement activity in Charles Foster albino rat model of spatial reference memory assessed as increase in time spent in target quadrant during probe trial at 10 to 30 mg/kg, po administered from day 1 to 4 measured 1 hr post last dose on day 4 by Morris water maze test; assay type: functional, organism-based
Rattus norvegicus [9] = assay: Cognition enhancement activity in Charles Foster albino rat model of spatial working memory assessed as escape latency at 10 mg/kg, po for administered from day 1 to 10 measured 1 hr post last dose on day 7 by Morris water maze test (reference value: 17.45 +/- 0.62 sec); assay type: functional
Rattus norvegicus [10] = assay: Cognition enhancement activity in Charles Foster albino rat model of spatial working memory assessed as escape latency at 20 mg/kg, po for administered from day 1 to 10 measured 1 hr post last dose on day 7 by Morris water maze test (reference value: 17.45 +/- 0.62 sec); assay type: functional
Rattus norvegicus [11] = assay: Cognition enhancement activity in Charles Foster albino rat model of spatial working memory assessed as escape latency at 30 mg/kg, po for administered from day 1 to 10 measured 1 hr post last dose on day 7 by Morris water maze test (reference value: 17.45 +/- 0.62 sec); assay type: functional
Rattus norvegicus [12] = assay: Cognition enhancement activity in Charles Foster albino rat model of spatial working memory assessed as escape latency at 10 mg/kg, po for administered from day 1 to 10 measured 1 hr post last dose on day 8 by Morris water maze test (reference value: 16.97 +/- 0.8 sec); assay type: functional
Rattus norvegicus [13] = assay: Cognition enhancement activity in Charles Foster albino rat model of spatial working memory assessed as escape latency at 20 mg/kg, po for administered from day 1 to 10 measured 1 hr post last dose on day 8 by Morris water maze test (reference value: 16.97 +/- 0.8 sec); assay type: functional
Rattus norvegicus [14] = assay: Cognition enhancement activity in Charles Foster albino rat model of spatial working memory assessed as escape latency at 30 mg/kg, po for administered from day 1 to 10 measured 1 hr post last dose on day 8 by Morris water maze test (reference value: 16.97 +/- 0.8 sec); assay type: functional
Rattus norvegicus [15] = assay: Cognition enhancement activity in Charles Foster albino rat model of spatial working memory assessed as escape latency at 10 mg/kg, po for administered from day 1 to 10 measured 1 hr post last dose on day 9 by Morris water maze test (reference value: 17.38 +/- 0.79 sec); assay type: functional
Rattus norvegicus [16] = assay: Cognition enhancement activity in Charles Foster albino rat model of spatial working memory assessed as escape latency at 20 mg/kg, po for administered from day 1 to 10 measured 1 hr post last dose on day 9 by Morris water maze test (reference value: 17.38 +/- 0.79 sec); assay type: functional
Rattus norvegicus [17] = assay: Cognition enhancement activity in Charles Foster albino rat model of spatial working memory assessed as escape latency at 30 mg/kg, po for administered from day 1 to 10 measured 1 hr post last dose on day 9 by Morris water maze test (reference value: 17.38 +/- 0.79 sec); assay type: functional
Rattus norvegicus [18] = assay: Cognition enhancement activity in Charles Foster albino rat model of spatial working memory assessed as escape latency at 10 mg/kg, po for administered from day 1 to 10 measured 1 hr post last dose on day 10 by Morris water maze test (reference value: 14.12 +/- 0.78 sec); assay type: functional
Rattus norvegicus [19] = assay: Cognition enhancement activity in Charles Foster albino rat model of spatial working memory assessed as escape latency at 20 mg/kg, po for administered from day 1 to 10 measured 1 hr post last dose on day 10 by Morris water maze test (reference value: 14.12 +/- 0.78 sec); assay type: functional
Rattus norvegicus [20] = assay: Cognition enhancement activity in Charles Foster albino rat model of spatial working memory assessed as escape latency at 30 mg/kg, po for administered from day 1 to 10 measured 1 hr post last dose on day 10 by Morris water maze test (reference value: 14.12 +/- 0.78 sec); assay type: functional
Rattus norvegicus [21] = assay: Cognition enhancement activity in Charles Foster albino rat model of spatial reference memory assessed as decrease in escape latency at 10 mg/kg, po administered from day 1 to 2 measured 1 hr post last dose on day 2 by Morris water maze test; assay type: functional, organism-based
Rattus norvegicus [22] = assay: Cognition enhancement activity in Charles Foster albino rat model of spatial reference memory assessed as increase in time spent in target quadrant during probe trial at 10 mg/kg, po for 4 days administered from day 1 to 4 measured 1 hr post last dose on day 4 by Morris water maze test; assay type: functional, organism-based

With O=C(O)c1ccc(/N=C/c2ccccc2O)cc1 as the molecule, how does the IC50 (Acetylcholinesterase [1]) read?
Its IC50 is 18 µM.

And the IC50 (Cholinesterase)?
Its IC50 is 717 µM.

What about the Ratio IC50 [2] of the same molecule?
Its Ratio IC50 is 39.8.

Which results are given for COc1ccc(/C(=N\c2ccc(C(=O)O)cc2)c2ccccc2)cc1?
IC50 (Acetylcholinesterase [1]): 6.09 µM; IC50 (Cholinesterase): 292 µM; Ratio IC50 [2]: 47.9

Which results are given for COc1cc(/C=N/c2ccc(C(=O)O)cc2)cc(OC)c1OC?
IC50 (Acetylcholinesterase [1]): 11.5 µM; IC50 (Cholinesterase): 378 µM; Ratio IC50 [2]: 32.7

What does the source list for COc1cc(/N=C/c2ccc([N+](=O)[O-])cc2)cc(OC)c1?
IC50 (Acetylcholinesterase [1]): 7.01 µM; IC50 (Cholinesterase): 452 µM; Ratio IC50 [2]: 64.5

Which results are given for COc1ccc(/C(=N\c2cc(OC)cc(OC)c2)c2ccccc2)cc1?
IC50 (Acetylcholinesterase [1]): 4.37 µM; IC50 (Cholinesterase): 284 µM; Ratio IC50 [2]: 65.1

Which IC50 (Acetylcholinesterase [1]) does the source give for COc1cc(/N=C/c2cc(OC)c(OC)c(OC)c2)cc(OC)c1 here?
Its IC50 is 0.82 µM.

And the IC50 (Cholinesterase)?
The IC50 was 328 µM.

And the Ratio IC50 [2]?
The Ratio IC50 was 402.

And the Ki (Acetylcholinesterase [3])?
The Ki was 0.72 µM.

What about the Activity [4] of the same molecule?
Its Activity is “Active”.

What about the Activity [5] of the same molecule?
Its Activity is “Active”.

And the Activity (Rattus norvegicus [6])?
Its Activity is 30.85 nmol/min.

What about the Activity (Rattus norvegicus [7]) of the same molecule?
The Activity was “Active”.

What about the Activity (Rattus norvegicus [8]) of the same molecule?
Its Activity is “Active”.

What about the Time (Rattus norvegicus [9]) of the same molecule?
Its Time is 17.57 s.

What about the Time (Rattus norvegicus [10]) of the same molecule?
Its Time is 16.95 s.

What about the Time (Rattus norvegicus [11]) of the same molecule?
The Time was 16.87 s.

What about the Time (Rattus norvegicus [12]) of the same molecule?
The Time was 15.45 s.

What about the Time (Rattus norvegicus [13]) of the same molecule?
The Time was 15.69 s.

What about the Time (Rattus norvegicus [14]) of the same molecule?
Its Time is 15.23 s.

What about the Time (Rattus norvegicus [15]) of the same molecule?
The Time was 15.12 s.

And the Time (Rattus norvegicus [16])?
The Time was 12.23 s.

And the Time (Rattus norvegicus [17])?
Its Time is 10.37 s.

And the Time (Rattus norvegicus [18])?
The Time was 10.2 s.

What about the Time (Rattus norvegicus [19]) of the same molecule?
Its Time is 8.87 s.

And the Time (Rattus norvegicus [20])?
The Time was 8.92 s.

What does the source list for COc1cc(/C(C)=N/c2ccc(C(=O)O)cc2)ccc1O?
IC50 (Acetylcholinesterase [1]): 3.93 µM; IC50 (Cholinesterase): 839 µM; Ratio IC50 [2]: 214

What does the source list for COc1cc(/N=C/c2ccccc2O)cc(OC)c1?
IC50 (Acetylcholinesterase [1]): 25.5 µM; IC50 (Cholinesterase): 747 µM; Ratio IC50 [2]: 29.2

For O=C(O)c1ccc(/N=C/c2ccccc2)cc1, which IC50 (Acetylcholinesterase [1]) is on record?
Its IC50 is 12.6 µM.

What about the IC50 (Cholinesterase) of the same molecule?
The IC50 was 502 µM.

What about the Ratio IC50 [2] of the same molecule?
The Ratio IC50 was 39.7.

For COc1cc2c(cc1OC)C(=O)C(CC1CCN(Cc3ccccc3)CC1)C2 (configuration not stated) [DONEPEZIL], which Activity [4] is on record?
The Activity was “Active”.

And the Activity [5]?
The Activity was “Active”.

And the Activity (Rattus norvegicus [21])?
Its Activity is “Active”.

What about the Activity (Rattus norvegicus [22]) of the same molecule?
The Activity was “Active”.

What about the Time (Rattus norvegicus [9]) of the same molecule?
The Time was 16.88 s.

And the Time (Rattus norvegicus [12])?
The Time was 14.38 s.

What about the Time (Rattus norvegicus [15]) of the same molecule?
Its Time is 7.78 s.

What about the Time (Rattus norvegicus [18]) of the same molecule?
Its Time is 7.33 s.

Which IC50 (Acetylcholinesterase [1]) does the source give for COc1cc(/N=C/c2ccccc2[N+](=O)[O-])cc(OC)c1 here?
The IC50 was 14.3 µM.

And the IC50 (Cholinesterase)?
Its IC50 is 457 µM.

What about the Ratio IC50 [2] of the same molecule?
The Ratio IC50 was 31.8.

With O=C(O)c1ccc(/N=C/c2ccc([N+](=O)[O-])cc2)cc1 as the molecule, how does the IC50 (Acetylcholinesterase [1]) read?
Its IC50 is 5.95 µM.

And the IC50 (Cholinesterase)?
The IC50 was 217 µM.

And the Ratio IC50 [2]?
The Ratio IC50 was 36.5.

With O=C(O)c1ccc(/N=C/c2ccccc2[N+](=O)[O-])cc1 as the molecule, how does the IC50 (Acetylcholinesterase [1]) read?
The IC50 was 6 µM.

What about the IC50 (Cholinesterase) of the same molecule?
Its IC50 is 387 µM.

What about the Ratio IC50 [2] of the same molecule?
The Ratio IC50 was 64.5.
